# Measurements: PMC12830989, “Subcellular glycan-mannose receptor binding kinetics correlate with myeloid cell function” (Nature Communications, 2025)
# “And” between values parts separate entries of the source, which are not always exact repeats. Equal entries are not always repeated. sCy5 = sulfo-Cy5
# Tested on: WT BMDC with OT-I T cells
# Assay: T cell proliferation assay (cross-presentation to OT-I T cells), WT BMDC
# Assay type: cell-based, mouse
# Details: Fig 4f source data; 40 nM SLP pulse 2 h, MPLA-matured BMDC, 3 d coculture with OT-I; per experiment, two technical replicates
# Description: A 70 µm filter was placed on a 50 mL tube and pre-wetted with PBS supplemented with 2 mM EDTA and 2% FCS (single-cell suspension buffer, SCSB). Freshly harvested spleens from OT-I transgenic mice were placed on the filter and disrupted with the back end of a syringe. After thorough washing, the suspension was centrifuged (10 min., 300 rcf, rt). Next, the pellet was gently resuspended in 2 mL of ACK lysing buffer (Gibco, A1049201). After 3 min incubation, the suspension was diluted with 10 mL PBS, filtered once more, and centrifuged again (300 rcf, 10 min, rt). The pellet was resuspended and subjected to magnetically-activated depletion of non-target cells using the “Naïve CD8a+ T cell isolation Kit” (Miltenyi, 130-096-543) according to manufacturer’s protocol. The obtained T cells were counted and resuspended at a density of 5-15 x 10^6/mL in 1 mL PBS with 5 µM CFSE (Biolegend) and incubated for 15 min. at 37 °C. After incubation, cells were spun down (10 min, 300 rcf, rt), washed once more with complete RPMI-1640 and were ready for downstream use.
# 5 x 10^4 WT, MR^−/− BMDC or 1 x 10^5 splenic DC were seeded in 96-well Nunc U-bottom plates (Thermo Scientific, 168136) and pulsed with Glycan SLP at 40 nM for indicated time. In indicated experiments, DC were pretreated with 1 µg/mL MPLA (Avanti, 699800 P) for 2 h before antigen pulse. After antigen pulse was finished, the plate was spun down for 3 min at 600 rcf, washed once with complete RPMI-1640 and 1-1.5E5 freshly isolated, CFSE-stained OT-I T cells were added to the pulsed DCs in 200 µL complete RPMI-1640 and incubated at 37 °C. After 3 d of coculture, the plate was spun down (3 min, 600 rcf, 4 °C) and supernatant was removed and stored at −80 °C. Cells were washed with FACS buffer (PBS with 2 mM EDTA, 2% FCS and 7.4 mM NaN3) and stained with Aqua Live/DEAD (Invitrogen, L34957, 1:500), TruStain FcX (Biolegend, 101319, 1:100), CD8a—APC (clone: 53-7.6, Biolegend, 100711, 1:200), and TCR V beta 5.1/5.2—eFluor450 (clone: MR9-4, eBioscience, 48-5796-82) for 30 min on ice, washed two times and acquired on a BD Fortessa I flow cytometer and analyzed using FlowJo v8. To calculate mean cycle, the CFSE dilution factor was obtained by dividing the MFI of the antigen pulsed condition by the DMSO pulsed condition expressed as Log2[69]. Statistical analysis and plotting were performed using GraphPad Prism V10.
row,Substance,average number of cell divisions per T cell (mean cycles)
1,"Ac-Lys(Man)-Gly-Lys(Man)-TEG-Asp-Glu-Val-Ser-Gly-Leu-Glu-Gln-Leu-Glu-Ser-Ile-Ile-Asn-Phe-Glu-Lys-Leu-Ala-Ala-Ala-Ala-Ala-Lys(sCy5)-NH2 ({Ac-K(Man)-Gly-K(Man)-TEG}-DEVSGLEQLESIINFEKLAAAAAK(sCy5)-NH2) [2 Mono(2), bivalent monomannosylated OVA SLP with sulfo-Cy5]",1.851 and 1.961 and 2.178 and 1.94 and 2.008 and 2.005
2,"Ac-Lys(Man)-Lys(Man)-Lys(Man)-Lys(Man)-Lys(Man)-Lys(Man)-TEG-Asp-Glu-Val-Ser-Gly-Leu-Glu-Gln-Leu-Glu-Ser-Ile-Ile-Asn-Phe-Glu-Lys-Leu-Ala-Ala-Ala-Ala-Ala-Lys(sCy5)-NH2 ({Ac-K(Man)-K(Man)-K(Man)-K(Man)-K(Man)-K(Man)-TEG}-DEVSGLEQLESIINFEKLAAAAAK(sCy5)-NH2) [6 Mono(3), hexavalent monomannosylated OVA SLP with sulfo-Cy5]",1.958 and 1.615 and 1.514 and 1.427 and 1.57 and 1.31
3,"Ac-Lys(Man)-TEG-Asp-Glu-Val-Ser-Gly-Leu-Glu-Gln-Leu-Glu-Ser-Ile-Ile-Asn-Phe-Glu-Lys-Leu-Ala-Ala-Ala-Ala-Ala-Lys(sCy5)-NH2 ({Ac-K(Man)-TEG}-DEVSGLEQLESIINFEKLAAAAAK(sCy5)-NH2) [1 Mono(1), monovalent monomannosylated OVA SLP with sulfo-Cy5]",2.424 and 2.329 and 2.498 and 2.6657 and 2.752 and 2.248
4,"Ac-Lys(triMan)-Gly-Lys(triMan)-TEG-Asp-Glu-Val-Ser-Gly-Leu-Glu-Gln-Leu-Glu-Ser-Ile-Ile-Asn-Phe-Glu-Lys-Leu-Ala-Ala-Ala-Ala-Ala-Lys(sCy5)-NH2 (DEVSGLEQLESIINFEKLAAAAAK; two Lys(triMan), TEG, sulfo-Cy5, C-amide; printed: Asp-Glu-Val-Ser-Gly-Leu-Glu-Gln-Leu-Glu-Ser-Ile-Ile-Asn-Phe-Glu-Lys-Leu-Ala-Ala-Ala-Ala-Ala-Lys) [2 Tri(5), bivalent trimannosylated OVA SLP with sulfo-Cy5]",0.8018 and 0.6166 and 1.144 and 1.271 and 1.393 and 1.229
5,"Ac-Lys(triMan)-Lys(triMan)-Lys(triMan)-Lys(triMan)-Lys(triMan)-Lys(triMan)-TEG-Asp-Glu-Val-Ser-Gly-Leu-Glu-Gln-Leu-Glu-Ser-Ile-Ile-Asn-Phe-Glu-Lys-Leu-Ala-Ala-Ala-Ala-Ala-Lys(sCy5)-NH2 (DEVSGLEQLESIINFEKLAAAAAK; six Lys(triMan), TEG, sulfo-Cy5, C-amide; printed: Asp-Glu-Val-Ser-Gly-Leu-Glu-Gln-Leu-Glu-Ser-Ile-Ile-Asn-Phe-Glu-Lys-Leu-Ala-Ala-Ala-Ala-Ala-Lys) [6 Tri(6), hexavalent trimannosylated OVA SLP with sulfo-Cy5]",0.3003 and 0.3873 and 0.4343 and 0.4095 and 0.438
6,"Ac-Lys(triMan)-TEG-Asp-Glu-Val-Ser-Gly-Leu-Glu-Gln-Leu-Glu-Ser-Ile-Ile-Asn-Phe-Glu-Lys-Leu-Ala-Ala-Ala-Ala-Ala-Lys(sCy5)-NH2 (DEVSGLEQLESIINFEKLAAAAAK; Ac-Lys(triMan)-TEG, sulfo-Cy5, C-amide; printed: Asp-Glu-Val-Ser-Gly-Leu-Glu-Gln-Leu-Glu-Ser-Ile-Ile-Asn-Phe-Glu-Lys-Leu-Ala-Ala-Ala-Ala-Ala-Lys) [1 Tri(4), monovalent trimannosylated OVA SLP with sulfo-Cy5]",1.87 and 1.461 and 1.875 and 1.671 and 1.661 and 1.884
